Tested on: lymphocytic leukemia P388
Test: Lymphocytic leukemia P388 test
Type: in vivo, BDF1 mice
[1] = Dose 3.12 mg/kg intraperitoneally on days 1, 5 and 9
[2] = Dose 6.25 mg/kg intraperitoneally on days 1, 5 and 9
[3] = Dose 12.5 mg/kg intraperitoneally on days 1, 5 and 9
[4] = Dose 25 mg/kg intraperitoneally on days 1, 5 and 9
[5] = Dose 50 mg/kg intraperitoneally on days 1, 5 and 9
[6] = Dose 100 mg/kg intraperitoneally on days 1, 5 and 9
[7] = Dose 200 mg/kg intraperitoneally on days 1, 5 and 9
[8] = Dose 12.25 mg/kg intraperitoneally on days 1, 5 and 9

## O=C(c1cccc([N+](=O)[O-])c1)N1CCN=C1N(N=Cc1c2ccccc2c(C=NN(C(=O)c2cccc([N+](=O)[O-])c2)C2=NCCN2C(=O)c2cccc([N+](=O)[O-])c2)c2ccccc12)C(=O)c1cccc([N+](=O)[O-])c1 [2,2'(9,10-Anthracenediyldimethylidyne)bis[1-[4,5-dihydro-1-(3-nitrobenzoyl)-1H-imidazol-2-yl]hydra-zide] of 3-nitrobenzoic acid]
[1]
  Median Survival: 16 days
  T/C x 100 %: 133%
[2]
  Median Survival: 16 days
  T/C x 100 %: 133%
[3]
  Median Survival: 13.5 days
  T/C x 100 %: 113%
[4]
  Median Survival: 18 days
  T/C x 100 %: 150%
[5]
  Median Survival: 16.5 days
  T/C x 100 %: 138%
[6]
  Median Survival: 18 days
  T/C x 100 %: 150%
[7]
  Median Survival: 21.5 days
  T/C x 100 %: 179%

## CC(=O)N1CCN=C1N(N=Cc1c2ccccc2c(C=NN(C(C)=O)C2=NCCN2C(C)=O)c2ccccc12)C(C)=O [2,2'-(9,10-Anthracenediyldimethylidyne)bis[1-(1-acetyl-4,5-dihydro-1H-imidazol-2-yl)hydrazide] of acetic acid]
[3]
  Median Survival: 10.5 days
  T/C x 100 %: 105%
[5]
  Median Survival: 10.5 days
  T/C x 100 %: 105%
[6]
  Median Survival: 11 days
  T/C x 100 %: 110%

## O=C(c1ccccc1F)N1CCN=C1N(N=Cc1c2ccccc2c(C=NN(C(=O)c2ccccc2F)C2=NCCN2C(=O)c2ccccc2F)c2ccccc12)C(=O)c1ccccc1F [2,2'-(9,10-Anthracenediyldimethylidyne)bis[1-[1-(2-fluorobenzoyl)-4,5-dihydro-1H-imidazol-2-yl] hydrazide] of 2-fluorobenzoic acid]
[4]
  Median Survival: 12 days
  T/C x 100 %: 109%
[5]
  Median Survival: 13 days
  T/C x 100 %: 118%
[6]
  Median Survival: 13 days
  T/C x 100 %: 118%
[7]
  Median Survival: 12 days
  T/C x 100 %: 109%

## O=C(c1ccco1)N1CCN=C1N(N=Cc1c2ccccc2c(C=NN(C(=O)c2ccco2)C2=NCCN2C(=O)c2ccco2)c2ccccc12)C(=O)c1ccco1 [2,2'-(9,10-Anthracenediyldimethylidyne)bis[1-[1-(2-furanylcarbonyl)-4,5-dihydro-1H-imidazol-2-yl]hydrazide] of 2-furancarboxylic acid]
[7]
  Median Survival: 12 days
  T/C x 100 %: 120%

## CC(C)(C)CC(=O)N1CCN=C1N(N=Cc1c2ccccc2c(C=NN(C(=O)CC(C)(C)C)C2=NCCN2C(=O)CC(C)(C)C)c2ccccc12)C(=O)CC(C)(C)C [2,2'-(9,10-Anthracenediyldimethylidyne)bis[1-[1-(3,3-dimethyl-1-oxobutyl)-4,5-dihydro-1H-imidazol-2-yl]-hydrazide] of 3,3-dimethylbutanoic acid]
[6]
  Median Survival: 12 days
  T/C x 100 %: 109%
[7]
  Median Survival: 13 days
  T/C x 100 %: 118%

## N#Cc1ccc(C(=O)N2CCN=C2N(N=Cc2c3ccccc3c(C=NN(C(=O)c3ccc(C#N)cc3)C3=NCCN3C(=O)c3ccc(C#N)cc3)c3ccccc23)C(=O)c2ccc(C#N)cc2)cc1 [2,2'-(9,10-Anthracenediyldimethylidyne)bis[1-[1-(4-cyanobenzoyl)-4,5-dihydro-1H-imidazol-2-yl] hydrazide] of 4-cyanobenzoic acid]
[4]
  Median Survival: 12 days
  T/C x 100 %: 109%
[5]
  Median Survival: 12.5 days
  T/C x 100 %: 114%
[6]
  Median Survival: 14.5 days
  T/C x 100 %: 132%
[7]
  Median Survival: 14.5 days
  T/C x 100 %: 132%

## CCCCCCc1ccc(C(=O)N2CCN=C2N(N=Cc2c3ccccc3c(C=NN(C(=O)c3ccc(CCCCCC)cc3)C3=NCCN3C(=O)c3ccc(CCCCCC)cc3)c3ccccc23)C(=O)c2ccc(CCCCCC)cc2)cc1 [2,2'-(9,10-Anthracenediyldimethylidyne)bis[1-[1-(4-hexylbenzoyl)-4,5-dihydro-1H-imidazol-2-yl]hydra-zide] of 4-hexylbenzoic acid]
[7]
  Median Survival: 14 days
  T/C x 100 %: 127%

## CCCC(=O)N1CCN=C1N(N=Cc1c2ccccc2c(C=NN(C(=O)CCC)C2=NCCN2C(=O)CCC)c2ccccc12)C(=O)CCC [2,2'-(9,10-Anthracenediyldimethylidyne)bis[1-[4,5-dihydro-1-(1-oxobutyl)-1H-imidazol-2-yl]hydra-zide] of butanoic acid]
[7]
  Median Survival: 11.5 days
  T/C x 100 %: 105%

## O=C(c1ccc2ccccc2c1)N1CCN=C1N(N=Cc1c2ccccc2c(C=NN(C(=O)c2ccc3ccccc3c2)C2=NCCN2C(=O)c2ccc3ccccc3c2)c2ccccc12)C(=O)c1ccc2ccccc2c1 [2,2'-(9,10-Anthracenediyldimethylidyne)bis[1-[4,5-dihydro-1-(2-naphthalenylcarbonyl)-1H-imidazol-2-yl]-hydrazide] of 2-naphthoic acid]
[6]
  Median Survival: 12 days
  T/C x 100 %: 104%

## COc1ccc(C(=O)N2CCN=C2N(N=Cc2c3ccccc3c(C=NN(C(=O)c3ccc(OC)cc3)C3=NCCN3C(=O)c3ccc(OC)cc3)c3ccccc23)C(=O)c2ccc(OC)cc2)cc1 [2,2'-(9,10-Anthracenediyldimethylidyne)bis[1-[4,5-dihydro-1-(4-methoxybenzoyl)-1H-imidazol-2-yl] hydrazide] of 4-methoxybenzoic acid]
[7]
  Median Survival: 16 days
  T/C x 100 %: 139%

## O=C(c1c(F)c(F)c(F)c(F)c1F)N1CCN=C1N(N=Cc1c2ccccc2c(C=NN(C(=O)c2c(F)c(F)c(F)c(F)c2F)C2=NCCN2C(=O)c2c(F)c(F)c(F)c(F)c2F)c2ccccc12)C(=O)c1c(F)c(F)c(F)c(F)c1F [2,2'-(9,10-Anthracenediyldimethylidyne)bis[1-[4,5-dihydro-1-(pentafluoro-1H-imidazol-2-yl)hydra-zide] of pentafluorobenzoic acid]
[7]
  Median Survival: 12 days
  T/C x 100 %: 109%

## CC(=O)N1CCN=C1NN=Cc1c2ccccc2c(C=NNC2=NCCN2C(C)=O)c2ccccc12 [2,2'-[9,10-Anthracenediylbis(methylidyne-1-hydrazinyl-2-ylidene)]bis[1-acetyl-4,5-dihydro-1H-imidazole]
[2]
  Median Survival: 10.5 days
  T/C x 100 %: 105%
[3]
  Median Survival: 10.5 days
  T/C x 100 %: 105%
[4]
  Median Survival: 10.5 days
  T/C x 100 %: 105%
[5]
  Median Survival: 11 days
  T/C x 100 %: 110%

## O=CN1CCN=C1N(C=O)N=Cc1c2ccccc2c(C=NN(C=O)C2=NCCN2C=O)c2ccccc12 [2,2'-[9,10-Anthracenediylbis[methylidyne(1-formyl-1-hydrazinyl-2-ylidene)]]bis[4,5-dihydro-1H-imidazole-1-carboxaldehyde]]
[3]
  Median Survival: 10.5 days
  T/C x 100 %: 105%
[5]
  Median Survival: 11 days
  T/C x 100 %: 110%
[7]
  Median Survival: 11.5 days
  T/C x 100 %: 115%

## CC(C)(C)OC(=O)N1CCN=C1NN=Cc1c2ccccc2c(C=NNC2=NCCN2C(=O)OC(C)(C)C)c2ccccc12 [2,2-(9,10-Anthracenediylbis(methylidyne-1-hydrazinyl-2-ylidene)]bis[4,5-dihydro]-1H-imidazole-1-carboxylic Acid], Bis(1,1-dimethylethyl) Ester]
[8]
  Median Survival: 17.5 days
  T/C x 100 %: 152%
[4]
  Median Survival: 22 days
  T/C x 100 %: 191%
[5]
  Median Survival: 31.5 days
  T/C x 100 %: 274%

## COCC(=O)N1CCN=C1N(N=Cc1c2ccccc2c(C=NN(C(=O)COC)C2=NCCN2C(=O)COC)c2ccccc12)C(=O)COC [2,2-(9,10-Anthracenediyldimethylidyne)bis[1-[4,5-dihydro-1-(methoxyacetyl)-1H-imidazo)-2-yl]hydrazide] of Methoxyacetic Acid]
[1]
  Median Survival: 14.5 days
  T/C x 100 %: 132%
[3]
  Median Survival: 16.5 days
  T/C x 100 %: 150%
[5]
  Median Survival: 16.5 days
  T/C x 100 %: 150%
[7]
  Median Survival: 16.5 days
  T/C x 100 %: 150%

## Cc1ccc(S(=O)(=O)N2CCN=C2NN=Cc2c3ccccc3c(C=NNC3=NCCN3S(=O)(=O)c3ccc(C)cc3)c3ccccc23)cc1 [2,2-[9,10-Anthracenediylbis(methylidyne-1-hydrazinyl-2-ylidene)]bis[4,5-dihydro-1-[(4-methylphenyl)sulfonyl]-1H-imidazole]]
[5]
  Median Survival: 14 days
  T/C x 100 %: 127%
[7]
  Median Survival: 14 days
  T/C x 100 %: 127%

## O=CN1CCN=C1NN=Cc1c2ccccc2c(C=NNC2=NCCN2C=O)c2ccccc12 [2,2-[9,10-Anthracenediylbis(methylidyne-1-hydrazinyl-2-ylidene)]bis[4,5-dihydro]-1H-imidazole-1-carboxaldehyde]
[5]
  Median Survival: 12 days
  T/C x 100 %: 120%
[7]
  Median Survival: 12 days
  T/C x 100 %: 120%

## O=C(O)C1CCCCC1C(=O)N1CCN=C1NN=Cc1c2ccccc2c(C=NNC2=NCCN2C(=O)C2CCCCC2C(=O)O)c2ccccc12 (stereo not drawn) [2,2-[9,10-Anthracenediylbis[methylidyne-1-hydrazinyl-2-ylidene(4,5-dihydro-1H-imidazole-2,1-diyl)-carbonyl]]biscyclohexanecarboxylic Acid]
[2]
  Median Survival: 13.5 days
  T/C x 100 %: 123%
[3]
  Median Survival: 16 days
  T/C x 100 %: 145%
[4]
  Median Survival: 18 days
  T/C x 100 %: 164%

## O=C(O)CCCC(=O)N1CCN=C1NN=Cc1c2ccccc2c(C=NNC2=NCCN2C(=O)CCCC(=O)O)c2ccccc12 [2,2-[9,10-Anthracenedlylbis(methylidyne-1-hydrazinyl-2-ylidene)]bis[4,5-dihydro-delta-oxo-1H-imidazole-1-pentanoic Acid]]
[1]
  Median Survival: 15.5 days
  T/C x 100 %: 141%
[3]
  Median Survival: 18 days
  T/C x 100 %: 164%
[5]
  Median Survival: 19 days
  T/C x 100 %: 173%
[7]
  Median Survival: 23 days
  T/C x 100 %: 209%

Source: patent publication EP0338372A2, “Solubilized pro-drugs” (AMERICAN CYANAMID COMPANY, priority 1988, dated 1989)
